Test results from article PMC4508619 (Scientific Reports, 2015).
“Also recorded” adds a separate entry of the source.

Assays:
Type in all cases: cell-based
[1] = molecular target: T1, concatemeric rTRPV1 (4wt) (Rattus norvegicus, UniProt O35433); assay: Two electrode voltage clamp, Xenopus laevis oocytes expressing 4wt concatemer; conditions: capsaicin, TEVC
Method: (§1) The current-voltage relationship was determined using whole-cell patch-clamp recordings.
(§2) Stage V–VI Xenopus laevis oocytes were prepared as previously described. Oocytes were injected up to 24 hr after isolation with a total of 5 ng cRNA, and assayed 5–10 days later. Two electrode voltage-clamp recordings were carried out at RT using GeneClamp 500 connected to digidata1322A and pCLAMP 8.2 (Molecular Devices, CA, USA). Electrodes (Sutter Instruments, CA, USA) were filled with 3 M KCl and had resistance of 0.5–1 MΩ. Oocytes were continuously perfused with normal frog ringer (NFR) solution without calcium containing (mM): 115 NaCl, 2.5 KCl, 2 […], and 10 HEPES, pH 7.4 with NaOH.

[2] = molecular target: T2, rTRPV1 (wt) (Rattus norvegicus, UniProt O35433); assay: Whole-cell patch-clamp, HEK293T cells transiently expressing wt rTRPV1; parameters: expressed in transfected cells; host or cells: HEK293T, transient, pCDNA3.1+
Method: as §1
(§3) Patch clamp experiments were executed using HEK293T cells in the whole cell or outside-out configuration 24 hrs after transfection, as previously described. 30,000 cells were plated on glass coverslips (12 mm) coated with relevant amounts of poly-D-Lysine (PDL; Sigma-Aldrich, MO, USA) and/or Matrigel (BD-biosciences, MA, USA) according to the configuration (see below). Patch electrodes were fabricated from borosilicate glass using the P1000 Micropipette Puller (Sutter Instrument, CA, USA) and fire-polished using the microforge MF-900 (Narishige, Tokyo, Japan). […] Recordings were performed using Axopatch 200B patch clamp amplifier (Molecular Devices, CA, USA), and data was collected and analyzed using pClamp 10.2 software (Molecular Devices, CA, USA). […]
(§4) HEK293T cells were plated on coverslips pre-coated with 0.05 mg/ml poly-D-Lysine (PDL; Sigma-Aldrich, MO, USA) and 1 μg/ml Matrigel (BD-biosciences, Bedford, MA, USA) three hrs prior to recordings. […] To avoid potential voltage errors due to receptor overexpression, dose responses were recorded at −40 mV, with the maximal current limited to ~2.5 nA. […] Proton response recordings were performed with 50 μM Amiloride in the bath solution (Sigma-Aldrich, MO, USA) in order to block natively expressed ASICs[43]. […]

[3] = molecular target: T3, rTRPV1 concatemer 4ya (Y511A in all subunits) (Rattus norvegicus, UniProt O35433, Y511A); assay: Whole-cell patch-clamp, HEK293T cells expressing 4ya concatemer; conditions: capsaicin 100 μM, whole-cell voltage ramps −80 to +80 mV
T3 construct: expressed in transfected cells; host or cells: HEK293T, transient, pCDNA3.1+
Method: as §3
(§5) HEK293T cells were plated on coverslips pre-coated with 0.05 mg/ml poly-D-Lysine (PDL; Sigma-Aldrich, MO, USA) and 1 μg/ml Matrigel (BD-biosciences, Bedford, MA, USA) three hrs prior to recordings. […] To avoid potential voltage errors due to receptor overexpression, dose responses were recorded at −40 mV, with the maximal current limited to ~2.5 nA. […] Proton response recordings were performed with 50 μM Amiloride in the bath solution (Sigma-Aldrich, MO, USA) in order to block natively expressed ASICs[43].

[4] = molecular target: T4, rTRPV1 concatemer 2wt/2ya (two Y511A subunits) (Rattus norvegicus, UniProt O35433, Y511A); assay: Whole-cell patch-clamp, HEK293T cells expressing 2wt/2ya concatemer; conditions: −40 mV
T4 construct: expressed in transfected cells; host or cells: HEK293T, transient, pCDNA3.1+
Method: (§6) Next, we determined the concentration-response relationship of the various concatemeric constructs, using the whole-cell configuration of the patch clamp at holding voltage of −40 mV.
as §3, with “below).” for “below). Patch electrodes were fabricated from borosilicate glass using the P1000 Micropipette Puller (Sutter Instrument, CA, USA) and fire-polished using the microforge MF-900 (Narishige, Tokyo, Japan).”
as §5
(§7) Dose response curves were calculated by SigmaPlot software (San Jose, CA) using the sigmoidal Hill equation as follows: […]

[5] = molecular target: T1, concatemeric rTRPV1 (4wt); assay: Whole-cell patch-clamp, HEK293T cells expressing tetrameric concatemer 4wt; parameters: expressed in transfected cells; host or cells: HEK293T, transient, pCDNA3.1+
Method: as §1, §6
as §3, with “below).” for “below). Patch electrodes were fabricated from borosilicate glass using the P1000 Micropipette Puller (Sutter Instrument, CA, USA) and fire-polished using the microforge MF-900 (Narishige, Tokyo, Japan).”
as §4

[6] = molecular target: T5, rTRPV1 concatemer wt/3ya (Rattus norvegicus, UniProt O35433, Y511A); assay: Single-channel outside-out patch recording, Flp-in TREX HEK293 cells, wt/3ya; conditions: for single-channel average amplitude, wt/3ya / unitary conductance, wt/3ya: +60 mV, outside-out
T5 construct: expressed in transfected cells
Source text: (§8) In order to facilitate recording from a single channel, we used an inducible system, Flp-in TREX, which allows doxycycline-controlled construct expression levels. […] The membrane potential was held at +60 mV considering that the conductance of TRPV1 receptor channels is higher at positive potentials. The pipette contained standard intracellular patch solution, and the patch of membrane was continuously perfused with standard extracellular solution.
(§9) Briefly, cells were co-transfected (performed as described above) with pcDNA5/FRT/TO containing the gene of interest and the Flp-recombinase expression vector pOG44 into the Flp-In host cell line (Invitrogen, MA, USA) at a ratio of 1:9, respectively, as previously described.
(§10) Patch clamp experiments were executed using HEK293T cells in the whole cell or outside-out configuration 24 hrs after transfection, as previously described. 30,000 cells were plated on glass coverslips (12 mm) coated with relevant amounts of poly-D-Lysine (PDL; Sigma-Aldrich, MO, USA) and/or Matrigel (BD-biosciences, MA, USA) according to the configuration (see below). Patch electrodes were fabricated from borosilicate glass using the P1000 Micropipette Puller (Sutter Instrument, CA, USA) and fire-polished using the microforge MF-900 (Narishige, Tokyo, Japan). Electrodes were coated with Sylgard (World Precision Instrument, FL, USA) to reduce the capacity of the recording pipette and to improve noise characteristics. […] Recordings were performed using Axopatch 200B patch clamp amplifier (Molecular Devices, CA, USA), and data was collected and analyzed using pClamp 10.2 software (Molecular Devices, CA, USA). All experiments were carried out at room temperature.
(§11) Single-channel currents were recorded in the outside-out patch configuration of the patch-clamp technique, as previously described. All single-channel recordings were done using the stable cell line Flp-in TREX 293 cells. Cells were plated on coverslips coated with 0.2 mg/ml PDL one hour prior induction. Doxycycline concentration and induction times for obtaining a membrane patches with a single channel were determined for each construct. Generally, 0.3–1 μg/ml doxycycline was used for 2–4 hrs prior to recordings. Patch electrodes were fire-polished to a resistance of 10–15 MΩ. The pipette solution contained (mM): 130 KCl, 4 NaCl, 2 MgSO4, 0.5 CaCl2, 1 EGTA and 10 HEPES adjusted to pH 7.2 with KOH. Single-channel currents were low-pass filtered at 5 kHz and digitized at 50 kHz. Occasional large brief noise spikes were visually identified and removed from the current traces. Single-channel recordings were analyzed with the pCLAMP 10.2 program Clampfit (Axon Instruments, USA), as previously described. For each concatemeric construct, 150–2000 events were collected from each of 3–5 separate patches. To determine channel amplitude, all-point amplitude histograms were created using data digitally filtered at 2 kHz. To determine channel open probability, traces filtered at 5 kHz were idealized using the half-amplitude threshold crossing method (pCLAMP 10.2)[38].

[7] = molecular target: T2, rTRPV1 (wt); assay: Two electrode voltage clamp, Xenopus laevis oocytes expressing wt rTRPV1; conditions: capsaicin, TEVC
Method: as §1, §2

[8] = molecular target: T6, rTRPV1 concatemer wt/3ya (three Y511A subunits) (Rattus norvegicus, UniProt O35433, Y511A); assay: Whole-cell patch-clamp, HEK293T cells expressing wt/3ya concatemer
T6 construct: expressed in transfected cells; host or cells: HEK293T, transient, pCDNA3.1+
Method: as §6
as §3, with “below).” for “below). Patch electrodes were fabricated from borosilicate glass using the P1000 Micropipette Puller (Sutter Instrument, CA, USA) and fire-polished using the microforge MF-900 (Narishige, Tokyo, Japan).”
as §5, §7

[9] = molecular target: T7, rTRPV1 concatemer 3wt/ya (one Y511A subunit) (Rattus norvegicus, UniProt O35433, Y511A); assay: Whole-cell patch-clamp, HEK293T cells expressing 3wt/ya concatemer; conditions: −40 mV
T7 construct: expressed in transfected cells; host or cells: HEK293T, transient, pCDNA3.1+
Method: as §6
as §3, with “below).” for “below). Patch electrodes were fabricated from borosilicate glass using the P1000 Micropipette Puller (Sutter Instrument, CA, USA) and fire-polished using the microforge MF-900 (Narishige, Tokyo, Japan).”
as §5, §7

[10] = molecular target: T1, concatemeric rTRPV1 (4wt); assay: Single-channel outside-out patch recording, Flp-in TREX HEK293 cells, 4wt; parameters: expressed in transfected cells; host or cells: HEK293T, transient, pCDNA3.1+
Source text: as §8, §9, §10
as §11, with “To determine channel amplitude, all-point amplitude histograms were created using data digitally filtered at 2 kHz. To determine channel open probability, traces filtered at 5 kHz were idealized using the half-amplitude threshold crossing method (pCLAMP 10.2)[38].” left out

[11] = molecular target: T8, rTRPV1 concatemer 4qa (E600Q/E648A in all subunits) (Rattus norvegicus, UniProt O35433, E600Q/E648A); assay: Whole-cell patch-clamp, HEK293T cells expressing 4qa concatemer; conditions: capsaicin 1 μM, −40 mV
T8 construct: expressed in transfected cells; host or cells: HEK293T, transient, pCDNA3.1+
Method: as §3, §5

[12] = 2 μM capsaicin, +60 mV, outside-out

T1 sequence (O35433 whole entry): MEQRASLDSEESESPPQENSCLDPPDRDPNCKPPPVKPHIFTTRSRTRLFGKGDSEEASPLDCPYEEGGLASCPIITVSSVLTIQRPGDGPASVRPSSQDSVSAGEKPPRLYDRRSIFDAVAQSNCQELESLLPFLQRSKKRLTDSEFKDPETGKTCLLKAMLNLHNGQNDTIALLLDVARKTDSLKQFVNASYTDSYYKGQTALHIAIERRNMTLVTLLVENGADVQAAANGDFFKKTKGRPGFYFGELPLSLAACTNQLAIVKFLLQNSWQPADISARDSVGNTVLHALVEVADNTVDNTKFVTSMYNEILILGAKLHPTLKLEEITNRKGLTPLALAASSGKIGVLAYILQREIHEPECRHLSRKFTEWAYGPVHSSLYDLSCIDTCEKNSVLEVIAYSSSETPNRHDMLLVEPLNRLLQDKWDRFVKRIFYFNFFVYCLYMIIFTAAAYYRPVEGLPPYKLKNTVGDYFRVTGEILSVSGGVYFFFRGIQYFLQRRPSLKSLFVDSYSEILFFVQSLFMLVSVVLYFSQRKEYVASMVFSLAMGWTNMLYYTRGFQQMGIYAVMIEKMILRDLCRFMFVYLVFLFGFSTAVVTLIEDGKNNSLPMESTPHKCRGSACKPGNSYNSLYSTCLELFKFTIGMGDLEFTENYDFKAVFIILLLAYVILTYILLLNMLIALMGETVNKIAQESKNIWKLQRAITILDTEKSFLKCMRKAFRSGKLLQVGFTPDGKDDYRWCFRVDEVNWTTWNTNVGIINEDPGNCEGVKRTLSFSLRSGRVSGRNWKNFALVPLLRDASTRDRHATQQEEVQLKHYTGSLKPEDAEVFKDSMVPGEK
T1 sequence (O35433 2-838 limits assumed): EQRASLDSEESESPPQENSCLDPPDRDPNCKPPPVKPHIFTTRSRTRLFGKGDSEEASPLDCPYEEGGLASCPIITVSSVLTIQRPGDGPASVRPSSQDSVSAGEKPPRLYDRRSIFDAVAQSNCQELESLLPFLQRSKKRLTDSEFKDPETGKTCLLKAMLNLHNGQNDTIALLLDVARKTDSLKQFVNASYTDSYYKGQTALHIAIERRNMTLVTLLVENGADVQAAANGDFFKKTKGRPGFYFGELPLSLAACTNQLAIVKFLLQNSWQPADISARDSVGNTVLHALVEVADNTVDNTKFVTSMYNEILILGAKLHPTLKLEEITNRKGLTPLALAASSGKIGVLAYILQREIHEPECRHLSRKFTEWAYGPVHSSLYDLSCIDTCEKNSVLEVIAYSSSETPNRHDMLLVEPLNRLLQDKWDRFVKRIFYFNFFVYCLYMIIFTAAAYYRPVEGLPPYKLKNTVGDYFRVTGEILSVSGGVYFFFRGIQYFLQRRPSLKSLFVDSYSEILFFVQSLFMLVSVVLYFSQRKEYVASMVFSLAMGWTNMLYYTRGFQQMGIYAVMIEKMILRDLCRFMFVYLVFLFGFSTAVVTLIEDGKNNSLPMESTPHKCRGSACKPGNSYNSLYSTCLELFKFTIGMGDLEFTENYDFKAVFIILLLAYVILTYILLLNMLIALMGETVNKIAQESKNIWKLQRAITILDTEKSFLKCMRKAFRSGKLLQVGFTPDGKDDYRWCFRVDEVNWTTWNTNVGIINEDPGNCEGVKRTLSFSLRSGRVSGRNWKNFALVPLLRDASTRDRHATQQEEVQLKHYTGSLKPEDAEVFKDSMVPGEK
T1 sequence (O35433 2-838 limits assumed): as above
T1 sequence (O35433 2-838 limits assumed): as above
T5 sequence (O35433 whole entry, stated change not applied): as the sequence (O35433 whole entry) above
T5 sequence (O35433 2-838 Y511A limits assumed): as the sequence (O35433 2-838 limits assumed) above, with Y510A counted along it
T5 sequence (O35433 2-838 Y511A limits assumed): as the sequence (O35433 2-838 limits assumed) above, with Y510A counted along it
T5 sequence (O35433 2-838 Y511A limits assumed): as the sequence (O35433 2-838 limits assumed) above, with Y510A counted along it
T2 sequence (O35433 whole entry): as the sequence (O35433 whole entry) above
T6 sequence (O35433 whole entry, stated change not applied): as the sequence (O35433 whole entry) above
T6 sequence (O35433 2-838 Y511A limits assumed): as the sequence (O35433 2-838 limits assumed) above, with Y510A counted along it
T6 sequence (O35433 2-838 Y511A limits assumed): as the sequence (O35433 2-838 limits assumed) above, with Y510A counted along it
T6 sequence (O35433 2-838 Y511A limits assumed): as the sequence (O35433 2-838 limits assumed) above, with Y510A counted along it
T3 sequence (O35433 whole entry Y511A): as the sequence (O35433 whole entry) above, with Y511A counted along it
T3 sequence (O35433 2-838 Y511A limits assumed): as the sequence (O35433 2-838 limits assumed) above, with Y510A counted along it
T3 sequence (O35433 2-838 Y511A limits assumed): as the sequence (O35433 2-838 limits assumed) above, with Y510A counted along it
T3 sequence (O35433 2-838 Y511A limits assumed): as the sequence (O35433 2-838 limits assumed) above, with Y510A counted along it
T7 sequence (O35433 whole entry, stated change not applied): as the sequence (O35433 whole entry) above
T7 sequence (O35433 2-838 limits assumed, stated change not applied): as the sequence (O35433 2-838 limits assumed) above
T7 sequence (O35433 2-838 limits assumed, stated change not applied): as the sequence (O35433 2-838 limits assumed) above
T7 sequence (O35433 2-838 Y511A limits assumed): as the sequence (O35433 2-838 limits assumed) above, with Y510A counted along it
T4 sequence (O35433 whole entry, stated change not applied): as the sequence (O35433 whole entry) above
T4 sequence (O35433 2-838 limits assumed, stated change not applied): as the sequence (O35433 2-838 limits assumed) above
T4 sequence (O35433 2-838 Y511A limits assumed): as the sequence (O35433 2-838 limits assumed) above, with Y510A counted along it
T4 sequence (O35433 2-838 Y511A limits assumed): as the sequence (O35433 2-838 limits assumed) above, with Y510A counted along it
T8 sequence (O35433 whole entry E600Q/E648A): as the sequence (O35433 whole entry) above, with E600Q, E648A counted along it
T8 sequence (O35433 2-838 E600Q/E648A limits assumed): as the sequence (O35433 2-838 limits assumed) above, with E599Q, E647A counted along it
T8 sequence (O35433 2-838 E600Q/E648A limits assumed): as the sequence (O35433 2-838 limits assumed) above, with E599Q, E647A counted along it
T8 sequence (O35433 2-838 E600Q/E648A limits assumed): as the sequence (O35433 2-838 limits assumed) above, with E599Q, E647A counted along it

COc1cc(CNC(=O)CCCC/C=C/C(C)C)ccc1O [capsaicin]
average current amplitude ICAP+80mV (±SEM), oocytes, 4wt [1]: 4.7 ± 0.2 μA | average current amplitude ICAP+80mV (±SEM), HEK293T, wt ([2]; capsaicin 1 μM, +80 mV): 8.3 ± 1.2 nA | Hill coefficient nH for capsaicin, wt ([2]; whole-cell, −40 mV): 1.3 | response of 4ya construct to capsaicin [3]: insensitive; also recorded: nearly eliminated | Hill coefficient nH for capsaicin, 2wt/2ya [4]: 1.2 | average current amplitude ICAP+80mV (±SEM), HEK293T, 4wt ([5]; capsaicin 1 μM, +80 mV): 7.8 ± 1.8 nA | Hill coefficient nH for capsaicin, 4wt ([5]; whole-cell, −40 mV): 1.4 | single-channel average amplitude, wt/3ya ([6]; 2 μM capsaicin): 4.8 ± 0.5 pA | unitary conductance, wt/3ya ([6]; 2 μM capsaicin): 80 ± 5 pS | single-channel average amplitude, wt/3ya ([6]; 30 μM capsaicin): 4.9 ± 0.4 pA | unitary conductance, wt/3ya ([6]; 30 μM capsaicin): 82 ± 3 pS | capsaicin concentration required to achieve full TRPV1 activation, wt/3ya ([6]; single functional VBS): 30 µM | average current amplitude ICAP+80mV (±SEM), oocytes, wt [7]: 5.6 ± 0.3 μA | response of wt/3ya construct to capsaicin ([8]; capsaicin 100 μM, whole-cell voltage ramps −80 to +80 mV): robust outward-rectifying current; also recorded: robust capsaicin response | Hill coefficient nH for capsaicin, wt/3ya ([8]; whole-cell, −40 mV): 1.1 | Hill coefficient nH for capsaicin, 3wt/ya [9]: 1.1 | capsaicin concentration required to achieve full TRPV1 activation, 4wt [10]: 2 µM | open probability, 4wt [10, 12]: 0.89 ± 0.10 | single-channel average amplitude, 4wt [10, 12]: 5.2 ± 0.4 pA | unitary conductance, 4wt [10, 12]: 86 ± 3 pS | capsaicin response, 4qa vs 4wt [11]: unaffected
